Patent US11840686B2, “Modulation of prekallikrein (PKK) expression” (Ionis Pharmaceuticals, Inc., priority 2013, dated 2023)
Strand notation (5' to 3'): a small letter for the sugar, then the base; units joined by * are phosphorothioate-linked, units joined directly phosphodiester-linked; [ ] holds rarer units or linkages, { } end groups; capitals alone tell only the bases. e = 2'-O-(2-methoxyethyl) (MOE); [5mC] = 5-methylcytosine; d = 2'-deoxy (DNA)

Test system: human PKK mRNA
Assay: Antisense inhibition of human PKK mRNA in HepaRG cells, 3,000 nM (Example 1)
Format: cell-based
Details: relative to untreated control cells
Outline: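 HepaRG cells, 20,000 per well, were electroporated with 3,000 nM 5-10-5 MOE gapmer (phosphorothioate, 5-methylcytosine). After about 24 h, PKK mRNA was measured by qRT-PCR with primer probe set RTS3454 and normalised to RIBOGREEN total RNA. Values are percent inhibition versus untreated cells.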

[1] = Table 3, HepaRG cells, electroporation with 3,000 nM antisense oligonucleotide, approx. 24 hours, PKK mRNA by RT-PCR (RTS3454)
[2] = Table 2, PKK mRNA, HepaRG cells, 3,000 nM, electroporation, ~24 h
[3] = Table 4, HepaRG cells, electroporation with 3,000 nM antisense oligonucleotide, approx. 24 hours, PKK mRNA by RT-PCR (RTS3454)
[4] = Table 1, PKK mRNA, HepaRG cells, 3,000 nM, electroporation, ~24 h

“531099 (eT*eG*eG*eA*eT*dG*dG*dG*dT*dA*dG*dA*dG*dG*d[5mC]*e[5mC]*eT*eT*eT*e[5mC]; antisense) [compound 531099]” was tested. Which “% inhibition” value [1] did it give?
Its value is 64%.

“531114 (antisense eA*eG*eA*eG*eT*d[5mC]*dA*dA*dG*dT*d[5mC]*d[5mC]*dA*d[5mC]*dA*eG*eA*e[5mC]*eA*eT) [compound 531114]” was tested. Which “% inhibition” value [1] did it give?
Its value is 40%.

How did the “% inhibition” value [2] turn out when “531020 (eA*eA*eG*e[5mC]*e[5mC]*d[5mC]*dA*dT*d[5mC]*dA*dA*dA*dG*d[5mC]*dA*eG*eT*eG*eG*eG; antisense) [compound 531020]” was run?
The value was 0%.

For “531229 (e[5mC]*eT*eT*e[5mC]*eA*dA*dA*dG*d[5mC]*d[5mC]*dA*dG*d[5mC]*dA*dG*eT*eG*eT*eA*eA; antisense) [compound 531229]”, which “% inhibition” value [3] is on record?
Its value is 69%.

With “531203 (eT*eG*eA*e[5mC]*eT*dA*dT*d[5mC]*d[5mC]*dA*dA*dT*dT*dT*d[5mC]*eT*eA*eG*eT*eT; antisense) [compound 531203]” as the substance, how does the “% inhibition” value [3] read?
Its value is 67%.

Which “% inhibition” value [3] does the source give for “531191 (eA*eA*eG*eT*eG*dT*dA*dT*dT*dG*d[5mC]*d[5mC]*dT*dA*dG*eA*eT*eT*eT*e[5mC]; antisense) [compound 531191]” here?
The value was 37%.

How did the “% inhibition” value [3] turn out when “531186 (e[5mC]*e[5mC]*eA*eT*eT*dA*d[5mC]*dT*d[5mC]*dT*d[5mC]*dA*dA*dG*d[5mC]*eT*e[5mC]*e[5mC]*eA*e[5mC]; antisense) [compound 531186]” was run?
Its value is 75%.

How did the “% inhibition” value [4] turn out when “530979 (antisense eG*eG*eT*eT*eA*dA*dA*dA*dG*dG*d[5mC]*dT*dA*dT*dA*eT*e[5mC]*e[5mC]*eA*eG) [compound 530979]” was run?
Its value is 35%.

“531093 (eT*eT*e[5mC]*eT*e[5mC]*d[5mC]*dT*dG*dG*d[5mC]*dT*d[5mC]*dA*dG*dA*eA*eG*e[5mC]*eT*e[5mC]; antisense) [compound 531093]” was tested. Which “% inhibition” value [1] did it give?
The value was 60%.

How did the “% inhibition” value [2] turn out when “531063 (antisense eG*eA*e[5mC]*eA*e[5mC]*d[5mC]*dA*dG*dG*dT*dT*dG*d[5mC]*dT*d[5mC]*e[5mC]*e[5mC]*eT*eG*e[5mC]) [compound 531063]” was run?
Its value is 51%.

Which “% inhibition” value [2] does the source give for “531046 (antisense eG*eA*eT*eA*eT*d[5mC]*dT*dT*dT*dT*d[5mC]*dT*dG*dG*d[5mC]*eA*eT*eT*e[5mC]*eT) [compound 531046]” here?
The value was 54%.

“530948 (antisense eA*e[5mC]*eA*eT*eG*dG*dA*dA*dG*d[5mC]*dT*dA*d[5mC]*dA*dT*e[5mC]*e[5mC]*e[5mC]*e[5mC]*eA) [compound 530948]” was tested. Which “% inhibition” value [4] did it give?
Its value is 35%.

Which “% inhibition” value [3] does the source give for “531237 (eG*eT*eG*eG*eA*dA*dT*dG*dT*d[5mC]*dA*dT*dG*dG*d[5mC]*eA*eA*eT*eT*eT; antisense) [compound 531237]” here?
Its value is 56%.

How did the “% inhibition” value [2] turn out when “531082 (eA*eT*eA*eT*eT*dG*dG*dT*dT*dT*dT*dT*dG*dG*dA*eA*eT*eT*e[5mC]*eT; antisense) [compound 531082]” was run?
The value was 31%.

How did the “% inhibition” value [4] turn out when “531003 (eA*eA*e[5mC]*e[5mC]*eA*dG*dA*dG*d[5mC]*dT*d[5mC]*d[5mC]*d[5mC]*dT*dT*eG*eT*eG*eT*e[5mC]; antisense) [compound 531003]” was run?
The value was 49%.

Which “% inhibition” value [3] does the source give for “531163 (antisense eT*e[5mC]*eA*eG*e[5mC]*dA*dG*dA*dA*dA*dT*d[5mC]*dA*dT*dG*eT*eA*eG*eG*e[5mC]) [compound 531163]” here?
Its value is 60%.

Which “% inhibition” value [4] does the source give for “530991 (eA*eT*eT*e[5mC]*eA*dA*dT*dT*d[5mC]*dT*dT*d[5mC]*dT*d[5mC]*d[5mC]*eT*e[5mC]*e[5mC]*eA*eA; antisense) [compound 530991]” here?
The value was 43%.

With “530982 (antisense eT*eA*eA*eA*eG*dT*dT*d[5mC]*dT*dT*dT*dT*dG*d[5mC]*dA*eG*eG*eT*eT*eA) [compound 530982]” as the substance, how does the “% inhibition” value [4] read?
The value was 0%.

How did the “% inhibition” value [4] turn out when “530976 (antisense eA*eT*eA*eT*eG*dG*dT*dG*dT*dT*dT*dT*d[5mC]*dT*dT*eG*eA*eG*eG*eA) [compound 530976]” was run?
Its value is 26%.

“531169 (antisense eT*eG*eG*eG*e[5mC]*dT*d[5mC]*dA*d[5mC]*d[5mC]*d[5mC]*d[5mC]*dA*dG*dT*eG*eG*eA*e[5mC]*e[5mC]) [compound 531169]” was tested. Which “% inhibition” value [3] did it give?
Its value is 54%.

For “530934 (antisense e[5mC]*eT*eT*e[5mC]*eT*dT*dG*dG*dA*dG*dG*dT*dG*dA*dG*eT*e[5mC]*eT*e[5mC]*eT) [compound 530934]”, which “% inhibition” value [4] is on record?
The value was 54%.

“531182 (antisense eA*eT*eA*eA*eT*d[5mC]*dA*dT*dG*dA*dT*dT*dT*dA*dT*eT*eT*eT*eG*e[5mC]) [compound 531182]” was tested. Which “% inhibition” value [3] did it give?
The value was 34%.

Which “% inhibition” value [1] does the source give for “531098 (eT*eT*eA*eT*eT*dA*dG*dT*d[5mC]*dA*dA*dA*dT*d[5mC]*dA*e[5mC]*e[5mC]*e[5mC]*eA*eA; antisense) [compound 531098]” here?
The value was 19%.

With “531179 (antisense eG*eA*eT*eT*eG*dG*dA*d[5mC]*d[5mC]*d[5mC]*dA*dG*dA*d[5mC]*dA*e[5mC]*eT*eA*eT*eA) [compound 531179]” as the substance, how does the “% inhibition” value [3] read?
Its value is 57%.

With “531064 (antisense eG*eT*eG*eT*eA*dG*dA*d[5mC]*dA*d[5mC]*d[5mC]*dA*dG*dG*dT*eT*eG*e[5mC]*eT*e[5mC]) [compound 531064]” as the substance, how does the “% inhibition” value [2] read?
The value was 56%.

For “531197 (eT*eA*e[5mC]*e[5mC]*eT*dT*dT*dT*d[5mC]*dT*d[5mC]*d[5mC]*dA*dT*dG*eT*e[5mC]*eA*eT*eT; antisense) [compound 531197]”, which “% inhibition” value [3] is on record?
The value was 42%.

“531079 (eT*e[5mC]*e[5mC]*eT*e[5mC]*dA*dG*d[5mC]*dA*dG*d[5mC]*dT*d[5mC]*dT*dG*eA*eG*eT*eG*e[5mC]; antisense) [compound 531079]” was tested. Which “% inhibition” value [2] did it give?
Its value is 58%.

For “531139 (antisense eT*e[5mC]*eA*e[5mC]*eT*dA*dA*dA*dA*d[5mC]*dA*dA*dA*dA*dA*eT*eA*e[5mC]*eT*eT) [compound 531139]”, which “% inhibition” value [1] is on record?
The value was 0%.

For “531100 (e[5mC]*e[5mC]*e[5mC]*e[5mC]*e[5mC]*dT*d[5mC]*d[5mC]*d[5mC]*dT*dT*d[5mC]*d[5mC]*d[5mC]*dT*eA*e[5mC]*eA*e[5mC]*eA; antisense) [compound 531100]”, which “% inhibition” value [1] is on record?
The value was 0%.

For “530955 (antisense e[5mC]*eA*eA*eA*e[5mC]*d[5mC]*dT*dT*dT*dT*d[5mC]*dT*d[5mC]*d[5mC]*dA*eT*eG*eT*e[5mC]*eA) [compound 530955]”, which “% inhibition” value [4] is on record?
Its value is 55%.

With “531224 (eA*eA*eG*eA*eG*dA*dA*dT*dG*d[5mC]*dT*d[5mC]*dA*dG*dA*eA*eA*eT*eG*eG; antisense) [compound 531224]” as the substance, how does the “% inhibition” value [3] read?
Its value is 25%.

How did the “% inhibition” value [4] turn out when “530990 (eA*eT*eT*e[5mC]*eT*dT*d[5mC]*dT*d[5mC]*d[5mC]*dT*d[5mC]*d[5mC]*dA*dA*eA*eG*eT*e[5mC]*eA; antisense) [compound 530990]” was run?
Its value is 32%.

“531134 (antisense eT*eT*eA*e[5mC]*e[5mC]*d[5mC]*dA*dT*d[5mC]*dA*dA*dA*dG*d[5mC]*dA*eG*eT*eG*eG*eG) [compound 531134]” was tested. Which “% inhibition” value [1] did it give?
The value was 6%.

Which “% inhibition” value [3] does the source give for “531209 (eT*eG*eG*eA*eT*dT*d[5mC]*dA*dT*dT*dT*dT*d[5mC]*dT*dG*e[5mC]*eA*eA*eA*eT; antisense) [compound 531209]” here?
The value was 81%.

“531087 (e[5mC]*e[5mC]*eA*eG*eG*dT*dG*dT*dG*dG*dA*d[5mC]*dA*dG*d[5mC]*eA*eG*e[5mC]*eT*eG; antisense) [compound 531087]” was tested. Which “% inhibition” value [1] did it give?
The value was 52%.

Which “% inhibition” value [1] does the source give for “531084 (eA*eT*eA*eG*eG*dG*dA*d[5mC]*dA*d[5mC]*dA*dA*d[5mC]*d[5mC]*dA*eA*eG*eG*eA*eA; antisense) [compound 531084]” here?
Its value is 25%.

With “531027 (antisense eA*eA*eA*eG*eG*dA*dG*d[5mC]*d[5mC]*dT*dG*dG*dA*dG*dT*eT*eT*eT*eA*eT) [compound 531027]” as the substance, how does the “% inhibition” value [2] read?
The value was 0%.

For “531035 (antisense eG*eT*eA*eG*eG*d[5mC]*dA*dT*dA*dT*dT*dG*dG*dT*dT*eT*eT*eT*eG*eG) [compound 531035]”, which “% inhibition” value [2] is on record?
The value was 46%.

“531138 (antisense eT*eT*eT*eA*eA*dA*dT*dG*dT*dG*dT*d[5mC]*dA*d[5mC]*dT*eT*eA*eA*eT*e[5mC]) [compound 531138]” was tested. Which “% inhibition” value [1] did it give?
Its value is 0%.

“531218 (eG*eA*eT*eA*eA*dT*dT*d[5mC]*dT*dT*dT*dT*d[5mC]*dA*d[5mC]*eA*eG*eA*e[5mC]*eA; antisense) [compound 531218]” was tested. Which “% inhibition” value [3] did it give?
The value was 72%.

For “531030 (antisense eA*eA*eT*eT*e[5mC]*dA*dG*dT*dG*dT*dA*dA*dT*dT*d[5mC]*eA*eA*eA*eG*eG) [compound 531030]”, which “% inhibition” value [2] is on record?
Its value is 24%.

How did the “% inhibition” value [4] turn out when “530996 (eT*eG*eA*e[5mC]*eA*dG*d[5mC]*dG*dA*dA*dT*d[5mC]*dA*dT*d[5mC]*eT*eT*eT*eG*eT; antisense) [compound 530996]” was run?
The value was 51%.

With “531054 (antisense e[5mC]*eT*eT*eT*eA*dT*dA*dG*d[5mC]*d[5mC]*dA*dG*d[5mC]*dA*d[5mC]*eA*eG*eA*e[5mC]*e[5mC]) [compound 531054]” as the substance, how does the “% inhibition” value [2] read?
The value was 48%.

With “531143 (antisense e[5mC]*eA*eT*eG*eG*dA*dA*dA*dA*dA*dT*dT*dA*dA*dG*e[5mC]*eT*e[5mC]*eA*eT) [compound 531143]” as the substance, how does the “% inhibition” value [1] read?
The value was 0%.

“531028 (antisense eA*eA*eT*eT*e[5mC]*dA*dA*dA*dG*dG*dA*dG*d[5mC]*d[5mC]*dT*eG*eG*eA*eG*eT) [compound 531028]” was tested. Which “% inhibition” value [2] did it give?
The value was 56%.

For “531075 (e[5mC]*e[5mC]*eA*eT*eG*d[5mC]*dT*dT*dT*dG*d[5mC]*dA*dG*dA*dT*eG*eA*eG*eG*eA; antisense) [compound 531075]”, which “% inhibition” value [2] is on record?
Its value is 64%.

How did the “% inhibition” value [3] turn out when “531204 (e[5mC]*eT*eT*eG*eT*dA*dG*dT*d[5mC]*dT*dG*d[5mC]*dA*d[5mC]*dT*eT*eA*eA*eT*eG; antisense) [compound 531204]” was run?
The value was 60%.
